Experimental data published in patent publication US11629171B2, “Beta-hairpin peptidomimetics” (POLYPHOR AG, priority 2017, dated 2023).
Values after ≈ are worked out from the molar mass of the structure shown. Where a SMILES comes first, the peptide text is derived from it. Bridges are numbered along the chain shown (N, C = ends). Roman numbers before positions name the chains, in order. [ ]: non-standard residue; d: D form. The star is where a group is joined. Tle = CC(C)(C)[C@H](N)C(=O)O; dDab = NCC[C@@H](N)C(=O)O; hSer = N[C@@H](CCO)C(=O)O; Orn = NCCC[C@H](N)C(=O)O; Dab = NCC[C@H](N)C(=O)O; Dap = NC[C@H](N)C(=O)O; Propionyl = CCC(=O)*

How the values were obtained:
Format in all cases: cell-based
[1] = test system: Acinetobacter baumannii 872842; conditions: 872842
Summary of the method: (§1)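 Two-fold peptide dilutions in polysorbate 80-containing (0.002% final) cation-adjusted Mueller-Hinton II broth were inoculated with about 10^6 CFU/mL. The MIC was taken as the lowest concentration, in μg/mL, preventing visible growth at 18-20 hours and 35° C.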

[2] = test system: Acinetobacter baumannii DSM 30008; conditions: DSM 30008
Summary of the method: as §1

[3] = test system: Enterobacter cloacae 848840; conditions: 848840
Summary of the method: as §1

[4] = test system: Escherichia coli 926415; conditions: 926415
Summary of the method: as §1

[5] = test system: Escherichia coli ATCC 25922; conditions: ATCC 25922
Summary of the method: as §1

[6] = test system: Klebsiella pneumoniae 968733; conditions: 968733
Summary of the method: as §1

[7] = test system: Klebsiella pneumoniae SSI #3010; conditions: SSI #3010
Summary of the method: as §1

[8] = test system: Pseudomonas aeruginosa ATCC 27853; conditions: ATCC 27853
Summary of the method: as §1

[9] = test system: human red blood cells (hRBC); assay: Hemolysis; conditions: red cells of human, 1 h, 200
Summary of the method: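 hRBC washed 4× in PBS; 200 μg/mL peptide + 20% (v/v) hRBC, 1 h, 37° C, 300 rpm. Spin, supernatant ~7.5-fold diluted, OD540 blank corrected. % hemolysis = OD540 peptide / OD540 Triton X-100 × 100.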

Compound | MIC [1] [µg/mL] | MIC [2] [µg/mL] | MIC [3] [µg/mL] | MIC [4] [µg/mL] | MIC [5] [µg/mL] | MIC [6] [µg/mL] | MIC [7] [µg/mL] | MIC [8] [µg/mL] | Hemolysis at 200 μg/mL [9] [%] | Acinetobacter baumannii DSM 30008 MIC [2] [µg/mL] | Escherichia coli ATCC 25922 MIC [5] [µg/mL] | Klebsiella pneumoniae SSI #3010 MIC [7] [µg/mL] | Pseudomonas aeruginosa ATCC 27853 MIC [8] [µg/mL]
CC(=O)N[C@H](C(=O)N[C@H]1CCCNC(=O)[C@@H]([C@H](C)O)NC(=O)[C@H](C(C)C)NC(=O)[C@H](CO)NC(=O)[C@H](Cc2c[nH]c3ccccc23)NC(=O)[C@H](CCO)NC(=O)[C@@H](CCN)NC(=O)[C@H](CCC(=O)N[C@@H](CCN)C(=O)N[C@H](C(=O)N[C@@H](CN)C(=O)N[C@H]2CCNC(=O)[C@H]([C@@H](C)O)NC(=O)[C@H](CCN)NC(=O)[C@H](CCN)NC(=O)[C@H](CC(C)C)NC(=O)[C@@H](CC(C)C)NC(=O)[C@H](CCN)NC2=O)[C@@H](C)O)NC(=O)[C@H](CCN)NC(=O)[C@H](Cc2ccc(O)cc2)NC1=O)C(C)C [Ex. 31] (I: Ac-V[Orn]Y[Dab]E[dDab][hSer]WSV[dT] / II: [Dab]T[Dap][Dab][Dab][dL]L[Dab][Dab]T; lactam I:2-I:C, II:4-II:C; amide I:5-II:N) | 0.125 (≈ 0.0539 µM) | 0.03125 (≈ 0.0135 µM) | 0.125 (≈ 0.0539 µM) | 0.5 (≈ 0.216 µM) | 0.03125 (≈ 0.0135 µM) | 0.125 (≈ 0.0539 µM) | 0.0625 (≈ 0.0269 µM) | 0.25 (≈ 0.108 µM) | <1 | – | – | – | –
CC(=O)N[C@H](C(=O)N[C@H]1CSSC[C@@H](C(N)=O)NC(=O)[C@H](C(C)C)NC(=O)[C@H](CCO)NC(=O)[C@H](Cc2c[nH]c3ccccc23)NC(=O)[C@H](CCO)NC(=O)[C@@H](CCN)NC(=O)[C@H](CCC(=O)N[C@@H](CCN)C(=O)N[C@H](C(=O)N[C@@H](CCN)C(=O)N[C@H]2CCNC(=O)[C@H]([C@@H](C)O)NC(=O)[C@H](CCN)NC(=O)[C@H](CCN)NC(=O)[C@H](CC(C)C)NC(=O)[C@@H](CC(C)C)NC(=O)[C@H](CCN)NC2=O)[C@@H](C)O)NC(=O)[C@H](CCN)NC(=O)[C@H](Cc2ccc(O)cc2)NC1=O)C(C)C [Example 6] (I: Ac-VCY[Dab]E[dDab][hSer]W[hSer]VC-NH2 / II: [Dab]T[Dab][Dab][Dab][dL]L[Dab][Dab]T; disulfide I:2-I:11; amide I:5-II:N; lactam II:4-II:C) | 4 (≈ 1.7 µM) | 0.125 (≈ 0.0531 µM) | 4 (≈ 1.7 µM) | 0.5 (≈ 0.212 µM) | 0.125 (≈ 0.0531 µM) | 0.5 (≈ 0.212 µM) | 0.25 (≈ 0.106 µM) | 0.125 (≈ 0.0531 µM) | 2 | – | – | – | –
CCC(=O)N[C@H](C(=O)N[C@H]1CSSC[C@@H](C(=O)N[C@@H](CO)C(N)=O)NC(=O)[C@H](C(C)(C)C)NC(=O)[C@H](CO)NC(=O)[C@H](Cc2c[nH]c3ccccc23)NC(=O)[C@H](CO)NC(=O)[C@@H](CCN)NC(=O)[C@H](CCC(=O)N[C@@H](CCN)C(=O)N[C@H](C(=O)N[C@@H](CN)C(=O)N[C@H]2CCNC(=O)[C@H]([C@@H](C)O)NC(=O)[C@H](CCN)NC(=O)[C@H](CCN)NC(=O)[C@H](CC(C)C)NC(=O)[C@@H](CC(C)C)NC(=O)[C@H](CCN)NC2=O)[C@@H](C)O)NC(=O)[C@H](CN)NC(=O)[C@H](Cc2ccc(O)cc2)NC1=O)C(C)C [Ex. 119] (I: Propionyl-VCY[Dap]E[dDab]SWS[Tle]CS-NH2 / II: [Dab]T[Dap][Dab][Dab][dL]L[Dab][Dab]T; disulfide I:2-I:11; amide I:5-II:N; lactam II:4-II:C) | 0.03125 (≈ 0.013 µM) | 0.0625 (≈ 0.0259 µM) | 0.0625 (≈ 0.0259 µM) | 0.0625 (≈ 0.0259 µM) | 0.0625 (≈ 0.0259 µM) | 0.125 (≈ 0.0518 µM) | 0.0625 (≈ 0.0259 µM) | 0.125 (≈ 0.0518 µM) | <1 | – | – | – | –
CC(=O)N[C@@H](CCN)C(=O)N[C@H](C(=O)N[C@H](C(=O)N[C@@H](Cc1ccc(O)cc1)C(=O)N[C@H]1CSSC[C@@H](C(=O)N[C@H](C(=O)N[C@@H](C)C(=O)N[C@H](C(N)=O)C(C)C)C(C)(C)C)NC(=O)[C@H](Cc2c[nH]c3ccccc23)NC(=O)[C@H](CO)NC(=O)[C@@H](CCN)NC(=O)[C@H](CCC(=O)N[C@@H](CCN)C(=O)N[C@H](C(=O)N[C@@H](CN)C(=O)N[C@H]2CCNC(=O)[C@H]([C@@H](C)O)NC(=O)[C@H](CCN)NC(=O)[C@H](CCN)NC(=O)[C@H](CC(C)C)NC(=O)[C@@H](CC(C)C)NC(=O)[C@H](CCN)NC2=O)[C@@H](C)O)NC1=O)[C@@H](C)O)C(C)C [Ex. 238] (I: Ac-[Dab]VTYCE[dDab]SWC[Tle]AV-NH2 / II: [Dab]T[Dap][Dab][Dab][dL]L[Dab][Dab]T; disulfide I:5-I:10; amide I:6-II:N; lactam II:4-II:C) | 0.0625 (≈ 0.0249 µM) | 0.03125 (≈ 0.0125 µM) | 0.125 (≈ 0.0498 µM) | 0.125 (≈ 0.0498 µM) | 0.0625 (≈ 0.0249 µM) | 0.25 (≈ 0.0996 µM) | 0.125 (≈ 0.0498 µM) | 0.125 (≈ 0.0498 µM) | 2 | – | – | – | –
CC(=O)N[C@@H](CC(C)C)C(=O)N[C@H]1CSSC[C@@H](C(=O)N[C@@H](CO)C(N)=O)NC(=O)[C@H](C(C)C)NC(=O)[C@H](CCN)NC(=O)[C@H](Cc2c[nH]c3ccccc23)NC(=O)[C@H](CCN)NC(=O)[C@@H](CCN)NC(=O)[C@H](CCC(=O)N[C@@H](CCN)C(=O)N[C@H](C(=O)N[C@@H](CN)C(=O)N[C@H]2CCNC(=O)[C@H]([C@@H](C)O)NC(=O)[C@H](CCN)NC(=O)[C@H](CCN)NC(=O)[C@H](CC(C)C)NC(=O)[C@@H](CC(C)C)NC(=O)[C@H](CCN)NC2=O)[C@@H](C)O)NC(=O)[C@H](CCN)NC(=O)[C@H](Cc2ccc(O)cc2)NC1=O [Ex. 353] (I: Ac-LCY[Dab]E[dDab][Dab]W[Dab]VCS-NH2 / II: [Dab]T[Dap][Dab][Dab][dL]L[Dab][Dab]T; disulfide I:2-I:11; amide I:5-II:N; lactam II:4-II:C) | 4 (≈ 1.64 µM) | – | 8 (≈ 3.28 µM) | 0.25 (≈ 0.103 µM) | – | 4 (≈ 1.64 µM) | – | – | <1 | 1 | 0.125 | 0.125 | 0.25
CC(=O)N[C@H](C(=O)N[C@H]1CSSC[C@@H](C(=O)N[C@@H](CO)C(=O)N[C@H](C)C(N)=O)NC(=O)[C@H](C(C)C)NC(=O)[C@H](CO)NC(=O)[C@H](Cc2c[nH]c3ccccc23)NC(=O)[C@H](CO)NC(=O)[C@@H](CCN)NC(=O)[C@H](CCC(=O)N[C@@H](CCN)C(=O)N[C@H](C(=O)N[C@@H](CN)C(=O)N[C@H]2CCNC(=O)[C@H]([C@@H](C)O)NC(=O)[C@H](CCN)NC(=O)[C@H](CCN)NC(=O)[C@H](CC(C)C)NC(=O)[C@@H](CC(C)C)NC(=O)[C@H](CCN)NC2=O)[C@@H](C)O)NC(=O)[C@H](CCN)NC(=O)[C@H](Cc2ccc(O)cc2)NC1=O)C(C)C [Ex. 378] (I: Ac-VCY[Dab]E[dDab]SWSVCS[dA]-NH2 / II: [Dab]T[Dap][Dab][Dab][dL]L[Dab][Dab]T; disulfide I:2-I:11; amide I:5-II:N; lactam II:4-II:C) | 0.0625 (≈ 0.0253 µM) | – | 0.0625 (≈ 0.0253 µM) | 0.0625 (≈ 0.0253 µM) | – | 0.125 (≈ 0.0506 µM) | – | – | <1 | 0.03125 | 0.0625 | 0.0625 | 0.0625
CC(=O)N[C@H](C(=O)N[C@H]1CSSC[C@@H](C(=O)N[C@@H](C)C(=O)N[C@@H](C(N)=O)[C@H](C)O)NC(=O)[C@H](C(C)C)NC(=O)[C@H](CO)NC(=O)[C@H](Cc2c[nH]c3ccccc23)NC(=O)[C@H](CO)NC(=O)[C@@H](CCN)NC(=O)[C@H](CCC(=O)N[C@@H](CCN)C(=O)N[C@H](C(=O)N[C@@H](CN)C(=O)N[C@H]2CCNC(=O)[C@H]([C@@H](C)O)NC(=O)[C@H](CCN)NC(=O)[C@H](CCN)NC(=O)[C@H](CC(C)C)NC(=O)[C@@H](CC(C)C)NC(=O)[C@H](CCN)NC2=O)[C@@H](C)O)NC(=O)[C@H](CCN)NC(=O)[C@H](Cc2ccc(O)cc2)NC1=O)C(C)C [Ex. 368] (I: Ac-VCY[Dab]E[dDab]SWSVCA[dT]-NH2 / II: [Dab]T[Dap][Dab][Dab][dL]L[Dab][Dab]T; disulfide I:2-I:11; amide I:5-II:N; lactam II:4-II:C) | 0.03125 (≈ 0.0126 µM) | – | 0.03125 (≈ 0.0126 µM) | 0.01562 (≈ 0.00629 µM) | – | 0.0625 (≈ 0.0252 µM) | – | – | 1 | 0.007813 | 0.01562 | 0.03125 | 0.0625
